Reference: US20070142437A1, “CHEMICAL COMPOUNDS” (priority 2005, published 2007)

Tested on: HUVEC cells
Assay: Human Umbilical Vein Endothelial Cell (HUVEC) proliferation assay (BrdU incorporation)
Assay type: cell-based
Details: growth stimulated with VEGF, 72 hrs, read-out: Inhibition of HUVEC proliferation IC50
Experimental: Human Umbilical Vein Endothelial Cell (HUVEC) Proliferation Assay (BrdU Incorporation) Materials
HUVEC cells and EGM-MV (Endothelial cell growth medium—microvascular) were purchased from Clonetics (San Diego, Calif.). VEGF and bFGF were purchased from R&D Systems (Minneapolis, Minn.). Anti-BrdU antibody was obtained from Chemicon International (Temecula, Calif.).
HUVECs were routinely maintained in EGM-MV medium and were used within passage 7. HUVECs were plated at a density of 2500 cells/well in M199 medium containing 5% FBS (Hyclone) in type I collagen coated plate (Becton Dickinson). The plate was incubated at 37° C. overnight. The medium was removed by aspiration, and test compounds were added to each well in a volume of 0.1 ml/well in serum-free M199 medium. Compound concentrations ranged from 1.5 nM to 30 micromolar. The plate was incubated for 30 min at 37° C. Another 0.1 ml of serum-free M199 medium containing BSA and VEGF (or bFGF) was added to give a final concentration of 0.1% BSA and 10 ng/ml VEGF (0.3 ng/ml bFGF). The plate was incubated at 37° C. for 72 hrs. BrdU was added to each well after the first 48 hrs to give a concentration of 10 micromolar. The colorimetric ELISA assay was performed according to manufacturer's (Roche Molecular Sciences) instructions, with detection by absorbance reading at 450 nm. Results were plotted as concentration of test compound vs. absorbance to give an IC50 value for inhibition of BrdU incorporation.

SMILES | IC50
CNS(=O)(=O)Cc1ccc(Nc2ncc(-c3ccccc3)o2)cc1 [Example 51, N-methyl-1-{4-[(5-phenyl-1,3-oxazol-2-yl)amino]phenyl}methanesulfonamide] | < 1 µM
CCS(=O)(=O)c1ccc(OC)c(Nc2ncc(-c3ccccc3)o2)c1 [Example 56, N-[5-(ethylsulfonyl)-2-methoxyphenyl]-5-phenyl-1,3-oxazol-2-amine] | < 0.5 µM
COc1ccc(S(=O)(=O)N(C)C)cc1Nc1ncc(-c2ccc(F)cc2)o1 [Example 70, 3-{[5-(4-fluorophenyl)-1,3-oxazol-2-yl]amino}-4-methoxy-N,N-dimethylbenzenesulfonamide] | < 0.5 µM
COc1cc(Nc2ncc(-c3ccccc3)o2)cc(OC)c1OC [Example 74, 5-phenyl-N-(3,4,5-trimethoxyphenyl)-1,3-oxazol-2-amine] | < 0.5 µM
COc1ccc(CS(C)(=O)=O)cc1Nc1ncc(-c2ccc(F)cc2)o1 [Example 82, 5-(4-fluorophenyl)-N-{2-methoxy-5-[(methylsulfonyl)methyl]phenyl}-1,3-oxazol-2-amine] | < 1 µM
COc1ccc(S(=O)(=O)NCc2ccccn2)cc1Nc1ncc(-c2ccc(F)cc2)o1 [Example 86, 3-{[5-(4-fluorophenyl)-1,3-oxazol-2-yl]amino}-4-methoxy-N-(pyridin-2-ylmethyl)benzenesulfonamide] | < 0.5 µM
COc1ccc(S(N)(=O)=O)cc1Nc1ncc(-c2ccc(F)cc2)o1 [Example 89, 3-{[5-(4-fluorophenyl)-1,3-oxazol-2-yl]amino}-4-methoxybenzenesulfonamide] | < 1 µM
CCC(CC)S(=O)(=O)c1ccc(OC)c(Nc2ncc(-c3ccc(F)cc3)o2)c1 [Example 90, N-{5-[(1-ethylpropyl)sulfonyl]-2-methoxyphenyl}-5-(4-fluorophenyl)-1,3-oxazol-2-amine] | < 1 µM
COc1ccc(S(=O)(=O)CC(C)C)cc1Nc1ncc(-c2ccc(F)cc2)o1 [Example 93, 5-(4-fluorophenyl)-N-[5-(isobutylsulfonyl)-2-methoxyphenyl]-1,3-oxazol-2-amine] | < 1 µM
COc1ccc(S(=O)(=O)CC2CCCO2)cc1Nc1ncc(-c2ccc(F)cc2)o1 (centres unmarked) [Example 94, 5-(4-fluorophenyl)-N-{2-methoxy-5-[(tetrahydrofuran-2-ylmethyl)sulfonyl]phenyl}-1,3-oxazol-2-amine] | < 1 µM
COc1ccc(S(=O)(=O)C2CCOC2)cc1Nc1ncc(-c2ccc(F)cc2)o1 (centres unmarked) [Example 95, 5-(4-fluorophenyl)-N-[2-methoxy-5-(tetrahydrofuran-3-ylsulfonyl)phenyl]-1,3-oxazol-2-amine] | < 1 µM
COc1ccc(S(=O)(=O)C(C)C)cc1Nc1ncc(-c2ccc(F)cc2)o1 [Example 97, 5-(4-fluorophenyl)-N-[5-(isopropylsulfonyl)-2-methoxyphenyl]-1,3-oxazol-2-amine] | < 0.5 µM
CCS(=O)(=O)c1ccc(OC)c(Nc2ncc(-c3cccc(Br)c3)o2)c1 [Example 100, 5-(3-bromophenyl)-N-[5-(ethylsulfonyl)-2-methoxyphenyl]-1,3-oxazol-2-amine] | < 1 µM
CCS(=O)(=O)c1ccc(OC)c(Nc2ncc(-c3ccc(F)cc3)o2)c1 [Example 109, N-[5-(ethylsulfonyl)-2-methoxyphenyl]-5-(4-fluorophenyl)-1,3-oxazol-2-amine] | < 0.5 µM
CCS(=O)(=O)c1ccc(OC)c(Nc2ncc(-c3ccc(F)c(F)c3)o2)c1 [Example 110, 5-(3,4-difluorophenyl)-N-[5-(ethylsulfonyl)-2-methoxyphenyl]-1,3-oxazol-2-amine] | < 1 µM
COc1cc(Nc2ncc(-c3ccc(F)cc3)o2)cc(OC)c1OC [Example 116, 5-(4-fluorophenyl)-N-(3,4,5-trimethoxyphenyl)-1,3-oxazol-2-amine] | < 1 µM
COc1ccc(S(=O)(=O)NCc2ccncc2)cc1Nc1ncc(-c2ccc(F)cc2)o1 [Example 122, 3-{[5-(4-fluorophenyl)-1,3-oxazol-2-yl]amino}-4-methoxy-N-(pyridin-4-ylmethyl)benzenesulfonamide] | < 1 µM
COc1ccc(S(=O)(=O)NC(C)C)cc1Nc1ncc(-c2ccc(F)cc2)o1 [Example 123, 3-{[5-(4-fluorophenyl)-1,3-oxazol-2-yl]amino}-N-isopropyl-4-methoxybenzenesulfonamide] | < 1 µM
COc1ccc(S(=O)(=O)NCC2CCCO2)cc1Nc1ncc(-c2ccc(F)cc2)o1 (centres unmarked) [Example 124, 3-{[5-(4-fluorophenyl)-1,3-oxazol-2-yl]amino}-4-methoxy-N-(tetrahydrofuran-2-ylmethyl)benzenesulfonamide] | < 1 µM

SMILES | IC50
COCCCNS(=O)(=O)c1ccc(OC)c(Nc2ncc(-c3ccc(F)cc3)o2)c1 [Example 129, 3-{[5-(4-fluorophenyl)-1,3-oxazol-2-yl]amino}-4-methoxy-N-(3-methoxypropyl)benzenesulfonamide] | < 1 µM
CNS(=O)(=O)c1ccc(OC)c(Nc2ncc(-c3ccc(F)cc3)o2)c1 [Example 130, 3-{[5-(4-fluorophenyl)-1,3-oxazol-2-yl]amino}-4-methoxy-N-methylbenzenesulfonamide] | < 1 µM
CCS(=O)(=O)c1ccc(OC)c(Nc2ncc(-c3ccc(Cl)cc3)o2)c1 [Example 132, 5-(4-chlorophenyl)-N-[5-(ethylsulfonyl)-2-methoxyphenyl]-1,3-oxazol-2-amine] | < 1 µM
CCS(=O)(=O)c1ccc(OC)c(Nc2ncc(-c3ccc(C#N)cc3)o2)c1 [Example 133, 4-(2-{[5-(ethylsulfonyl)-2-methoxyphenyl]amino}-1,3-oxazol-5-yl)benzonitrile] | < 0.5 µM
CCS(=O)(=O)c1ccc(OC)c(Nc2ncc(-c3ccc(C(N)=O)cc3)o2)c1 [Example 134] | < 0.5 µM
CCS(=O)(=O)c1ccc(OC)c(Nc2ncc(-c3cccc(Cl)c3)o2)c1 [Example 137, 5-(3-chlorophenyl)-N-[5-(ethylsulfonyl)-2-methoxyphenyl]-1,3-oxazol-2-amine] | < 1 µM
CCS(=O)(=O)c1ccc(OC)c(Nc2ncc(-c3cccc(F)c3)o2)c1 [Example 141, N-[5-(ethylsulfonyl)-2-methoxyphenyl]-5-(3-fluorophenyl)-1,3-oxazol-2-amine] | < 0.5 µM
CCS(=O)(=O)c1ccc(OC)c(Nc2ncc(-c3ccc4c(c3)OCCO4)o2)c1 [Example 148, 5-(Z,3-dihydro-1,4-benzodioxin-6-yl)-N-[5-(ethylsulfonyl)-2-methoxyphenyl]-1,3-oxazol-2-amine] | < 1 µM
CCS(=O)(=O)c1ccc(OC)c(Nc2ncc(-c3ccc4c(c3)OCCCO4)o2)c1 [Example 153, 5-(3,4-dihydro-2H-1,5-benzodioxepin-7-yl)-N-[5-(ethylsulfonyl)-2-methoxyphenyl]-1,3-oxazol-2-amine] | < 1 µM
CCS(=O)(=O)c1ccc(OC)c(Nc2ncc(-c3cccc(O)c3)o2)c1 [Example 158] | < 1 µM
CCS(=O)(=O)c1ccc(OC)c(Nc2ncc(-c3cccc(OCc4cccc(OC)c4OC)c3)o2)c1 [Example 165, 5-{3-[(2,3-dimethoxybenzyl)oxy]phenyl}-N-[5-(ethylsulfonyl)-2-methoxyphenyl]-1,3-oxazol-2-amine] | < 1 µM
CCS(=O)(=O)c1ccc(OC)c(Nc2ncc(-c3cccc(OC(C)c4ccncc4)c3)o2)c1 (centres unmarked) [Example 166, N-[5-(ethylsulfonyl)-2-methoxyphenyl]-5-[3-(1-pyridin-4-ylethoxy)phenyl]-1,3-oxazol-2-amine] | < 1 µM
CCS(=O)(=O)c1ccc(OC)c(Nc2ncc(-c3cccc(OC4CCOC4)c3)o2)c1 (centres unmarked) [Example 167, N-[5-(ethylsulfonyl)-2-methoxyphenyl]-5-[3-(tetrahydrofuran-3-yloxy)phenyl]-1,3-oxazol-2-amine] | < 1 µM
CCS(=O)(=O)c1ccc(OC)c(Nc2ncc(-c3cccc(-c4cccs4)c3)o2)c1 [Example 172, N-[5-(ethylsulfonyl)-2-methoxyphenyl]-5-(3-thien-2-ylphenyl)-1,3-oxazol-2-amine] | < 0.5 µM
CCS(=O)(=O)c1ccc(OC)c(Nc2ncc(-c3cccc(-c4ccsc4)c3)o2)c1 [Example 173, N-[5-(ethylsulfonyl)-2-methoxyphenyl]-5-(3-thien-3-ylphenyl)-1,3-oxazol-2-amine] | < 0.5 µM
CCS(=O)(=O)c1ccc(OC)c(Nc2ncc(-c3cccc(-c4cccnc4)c3)o2)c1 [Example 174, N-[5-(ethylsulfonyl)-2-methoxyphenyl]-5-(3-pyridin-3-ylphenyl)-1,3-oxazol-2-amine] | < 1 µM
C=Cc1cccc(-c2cnc(Nc3cc(S(=O)(=O)CC)ccc3OC)o2)c1 [Example 175, N-[5-(ethylsulfonyl)-2-methoxyphenyl]-5-(3-vinylphenyl)-1,3-oxazol-2-amine] | < 1 µM
CCS(=O)(=O)c1ccc(OC)c(Nc2ncc(-c3cccc(-c4ccccn4)c3)o2)c1 [Example 178, N-[5-(ethylsulfonyl)-2-methoxyphenyl]-5-(3-pyridin-2-ylphenyl)-1,3-oxazol-2-amine] | < 0.5 µM
CCS(=O)(=O)c1ccc(OC)c(Nc2ncc(-c3cccc(-c4cncn4C)c3)o2)c1 [Example 179, N-[5-(ethylsulfonyl)-2-methoxyphenyl]-5-[3-(1-methyl-1H-imidazol-5-yl)phenyl]-1,3-oxazol-2-amine] | < 0.5 µM
